# Assays:
# [1] = biological target: T1, human GRIN1 (variant NR1-3) and GRIN2D expressed in HEK293 cells (Homo sapiens, UniProt O15399); experiment: GluN2D PAM CIQ fluorescence assay (Fluo-8 calcium, FDSS 6000); type: cell-based; conditions: relative to CIQ (100 uM) = 100%, read-out: NR2D Percent CIQ Avg Max Measured Effect
# T1 construct: GenScript (GRIN2D synthesis) SC115601; host or cells: HEK293
# Procedure: GluN2D PAM CIO Flourescence AssayHEK293 cells were transfected to express human GRIN1 (variant NR1-3, Origene, SKU #: SC115601, Rockville, Md.) and GRIN2D (NCBI locus NM_000836, sequence optimized and synthesized by GenScript) and grown as an adherent monolayer at 37° C., 5% CO2 in DMEM/Ham's F12+10% FBS (Hyclone SH3007.03T in the presence of 2.5 mM ARL-15896 (AdooQ Bioscience, Irvine Calif.). To prepare the cells for an experiment, they were rinsed with Dulbecco's PBS (Ca^2+ and Mg^2+ free) and detached from the flask with TrypLE™ Express (Life Technologies, Carlsbad, Calif.) using the manufacturer's recommended methods. Cells collected from the flask were washed twice in Ca^2+/Mg^2+-free Hanks Balanced Salt Solution+20 mM HEPES (HBSS), and counted and assessed for viability with trypan blue. Washed cells were then dye-loaded by resuspending in Fluo-8/AM calcium sensitive dye plus Component B (AAT Bioquest, Sunnyvale, Calif.) diluted in HBSS. To allow cells to take up fluo-8 dye, they were incubated in the dark for 15 min at 37° C., followed by 30 min at 22-25° C. After dye-loading, cells were washed and resuspended in HBSS and plated in 384-well plates (Falcon 353962; Corning, Big Flats, N.Y.) at 20,000-30,000 cells/well in a final volume of 25 μl/well. The cell plates were centrifuged at 200×g, for 2 minutes at 21° C., to create a monolayer of cells at the bottom of the wells.
# To initiate an assay, 10 μl of test compound or buffer was added to each well of the cell plate and pre-incubated for 10 minutes in the dark. After 10 minutes, the cell plate was placed in a FDSS 6000 plate reader (Hamamatsu Photonics, Middlesex, N.J.); baseline fluorescence readings were collected for 20 seconds. Next, 25 μl of agonist solution (3 μM glutamate, 3 μM glycine, and 1 mM Ca^2+ in HBSS) was added and the change in fluorescence was recorded for 3 minutes.
# Results were calculated by comparing the effects of test compounds to that of the literature standard GluN2C/D PAM CIQ (100 uM). The increase in fluorescence in the presence of CIQ minus the increase induced by glutamate+glycine alone was set to 100%. Responses induced by compounds that were larger than gain the presence of the standard concentration of CIQ were greater than 100% and lesser responses were less than 100%.
# [2] = biological target: T2, human GRIN1 (transcript variant NR1-3) and GRIN2D expressed in Xenopus oocytes (Homo sapiens, UniProt O15399); experiment: NR2D oocyte potentiation assay (two-electrode voltage clamp); type: cell-based; conditions: 10 uM test compound; glutamate and glycine 10 μM each; holding potential −40 mV
# T2 construct: GenScript (GRIN2D synthesis) SC115601; host or cells: Xenopus oocytes injected with cRNA (1 GluN1 : 2 GluN2)
# In short: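 Xenopus oocytes were defolliculated with collagenase, then injected with 50 nL of cRNA encoding human GluN1 (NR1-3 variant) and GluN2D mixed 1:2 and kept 72 h at 16° C. Two-electrode voltage clamp at −40 mV recorded currents; after 10 μM glutamate plus 10 μM glycine reached plateau, test compound was added until a new plateau formed.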
# T1 sequence (O15399 28-1336, other chains not shown): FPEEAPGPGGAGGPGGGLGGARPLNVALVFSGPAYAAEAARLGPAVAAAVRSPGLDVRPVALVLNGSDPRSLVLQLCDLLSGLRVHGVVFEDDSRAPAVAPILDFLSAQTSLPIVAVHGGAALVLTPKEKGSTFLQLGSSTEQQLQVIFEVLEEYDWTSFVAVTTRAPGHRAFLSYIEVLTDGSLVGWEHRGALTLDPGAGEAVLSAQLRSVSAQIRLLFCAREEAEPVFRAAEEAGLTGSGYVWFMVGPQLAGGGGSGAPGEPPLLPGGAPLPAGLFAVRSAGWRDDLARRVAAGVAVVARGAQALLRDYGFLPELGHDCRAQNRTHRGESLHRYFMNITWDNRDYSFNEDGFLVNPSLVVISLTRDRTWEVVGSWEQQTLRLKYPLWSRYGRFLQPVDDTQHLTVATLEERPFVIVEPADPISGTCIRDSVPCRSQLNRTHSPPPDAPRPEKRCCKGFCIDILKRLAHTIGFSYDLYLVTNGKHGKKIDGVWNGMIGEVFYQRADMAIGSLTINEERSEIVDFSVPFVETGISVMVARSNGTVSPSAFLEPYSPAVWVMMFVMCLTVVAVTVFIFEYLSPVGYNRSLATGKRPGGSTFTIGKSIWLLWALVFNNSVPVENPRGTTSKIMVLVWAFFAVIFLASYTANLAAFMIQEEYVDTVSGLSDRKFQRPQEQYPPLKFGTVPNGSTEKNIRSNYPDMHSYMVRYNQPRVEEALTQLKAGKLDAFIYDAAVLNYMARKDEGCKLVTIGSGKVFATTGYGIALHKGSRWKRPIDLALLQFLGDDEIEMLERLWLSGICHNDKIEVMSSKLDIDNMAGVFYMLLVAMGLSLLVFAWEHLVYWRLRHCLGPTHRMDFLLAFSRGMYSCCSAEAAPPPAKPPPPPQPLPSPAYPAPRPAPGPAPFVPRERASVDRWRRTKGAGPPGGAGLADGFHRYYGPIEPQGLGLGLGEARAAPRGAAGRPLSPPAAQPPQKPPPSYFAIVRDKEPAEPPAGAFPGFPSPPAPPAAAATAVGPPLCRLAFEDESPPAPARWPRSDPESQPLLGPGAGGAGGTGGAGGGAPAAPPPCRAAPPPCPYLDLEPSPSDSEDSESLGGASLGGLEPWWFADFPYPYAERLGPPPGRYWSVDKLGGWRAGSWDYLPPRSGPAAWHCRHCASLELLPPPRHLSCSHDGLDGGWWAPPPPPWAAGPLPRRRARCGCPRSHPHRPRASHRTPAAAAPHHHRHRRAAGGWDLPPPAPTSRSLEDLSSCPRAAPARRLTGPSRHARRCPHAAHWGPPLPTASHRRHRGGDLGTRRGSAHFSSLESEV
# T2 sequence (O15399 28-1336, other chains not shown): as above
SMILES,Emax [1],activation at 10 µM [2],NR2D Oocyte % Potentiation @ 10 uM [2]
"CN(C)C(=O)/N=c1/c(C#N)c(-c2ccc(C(C)(C)C)cc2)nc2n1CCCS2 [Example 42, (Z)-3-(8-(4-(tert-butyl)phenyl)-7-cyano-3,4-dihydro-2H,6H-pyrimido[2,1-b][1,3]thiazin-6-ylidene)-1,1-dimethylurea]",100 to 200%,100 to 500%,
"C[C@H]1CSc2nc(-c3ccc(C(C)(C)C)nc3)c(C#N)c(=N)n2C1 [Example 64, (R)-8-(6-(tert-butyl)pyridin-3-yl)-6-imino-3-methyl-3,4-dihydro-2H,6H-pyrimido[2,1-b][1,3]thiazine-7-carbonitrile]",100 to 200%,100 to 500%,
"C/N=c1/c(C#N)c(-c2ccc(C(C)(C)C)cc2)nc2n1CCCS2 [Example 37, (Z)-8-(4-(tert-butyl)phenyl)-6-(methylimino)-3,4-dihydro-2H,6H-pyrimido[2,1-b][1,3]thiazine-7-carbonitrile]",> 200%,500 to 1000%,
"CC(C)(C)c1ccc(-c2nc3n(/c(=N\C(=O)C(F)(F)F)c2C#N)CCCS3)cc1 [Example 43, (Z)—N-(8-(4-(tert-butyl)phenyl)-7-cyano-3,4-dihydro-2H,6H-pyrimido[2,1-b][1,3]thiazin-6-ylidene)-2,2,2-trifluoroacetamide]",10 to 50%,100 to 500%,
"C[C@@H]1CSc2nc(-c3ccc(C(C)(C)C)nc3)c(C#N)c(=O)n2C1 [Example 45, (S)-8-(6-(tert-butyl)pyridin-3-yl)-3-methyl-6-oxo-3,4-dihydro-2H,6H-pyrimido[2,1-b][1,3]thiazine-7-carbonitrile]",> 200%,> 1000%,
"CC(C)c1ccc(-c2ccc(-c3nc4n(c(=O)c3C#N)CCCS4)c(F)c2)cc1 [Example 198, 8-{2-fluoro-4[4-(propan-2-yl)phenyl]phenyl}-6-oxo-2H,3H,4H,6H-pyrimido[2,1-b][1,3]thiazine-7-carbonitrile]",10 to 50%,10 to 100%,
"CC(C)(C)c1ccc(-c2nc3n(c(=O)c2C#N)CC2(COC2)CS3)cc1 [Example 204, 8′-(4-tert-butylphenyl)-6′-oxo-4′,6′-dihydro-2′H-spiro[oxetane-3,3′-pyrimido[2,1-b][1,3]thiazine]-7′-carbonitrile]",10 to 50%,10 to 100%,
"CC1CCSc2nc(-c3ccc(C(C)(C)C)cc3)c(C#N)c(=O)n21 (stereo not shown) [Example 201, 8-(4-tert-butylphenyl)-3,4-dihydro-4-methyl-6-oxo-2H,6H-pyrimido[2,1-b][1,3]thiazine-7-carbonitrile]",100 to 200%,10 to 100%,
"CC(C)(C)c1ccc(-c2nc3n(c(=O)c2C#N)CCS3)cc1 [Example 205, 7-(4-tert-butylphenyl)-5-oxo-2H,3H,5H-[1,3]thiazolo[3,2-a]pyrimidine-6-carbonitrile]",100 to 200%,100 to 500%,
"C[C@H]1CSc2nc(-c3ccc(C(C)(C)C)nc3)c(C#N)c(=O)n2C1 [Example 44, (R)-8-(6-(tert-butyl)pyridin-3-yl)-3-methyl-6-oxo-3,4-dihydro-2H,6H-pyrimido[2,1-b][1,3]thiazine-7-carbonitrile]",100 to 200%,100 to 500%,
"CC(C)(C)c1ccc(-c2nc3n(c(=O)c2C#N)C(c2ccccc2)CCS3)cc1 (stereo not shown) [Example 202, 8-(4-tert-butylphenyl)-3,4-dihydro-4-phenyl-6-oxo-2H,6H-pyrimido[2,1-b][1,3]thiazine-7-carbonitrile]",10 to 50%,,Inhibitor
"CC1CSc2nc(-c3cnc(C(C)(C)C)nc3)c(C#N)c(=N)n2C1 (stereo not shown) [Example 39, 8-(2-(tert-butyl)pyrimidin-5-yl)-6-imino-3-methyl-3,4-dihydro-2H,6H-pyrimido[2,1-b][1,3]thiazine-7-carbonitrile]",> 200%,> 1000%,
"CC(C)(C)c1ncc(-c2nc3ccccn3c(=O)c2C#N)cn1 [Example 20, 2-(2-(tert-butyl)pyrimidin-5-yl)-4-oxo-4H-pyrido[1,2-a]pyrimidine-3-carbonitrile]",100 to 200%,100 to 500%,
"CC1CSc2nc(-c3ccc(C(C)(C)C)nc3)c(C#N)c(=O)n2C1 (stereo not shown) [Example 175, 8-(6-tert-butylpyridin-3-yl)-3-methyl-6-oxo-2H,3H,4H,6H-pyrimido[2,1-b][1,3]thiazine-7-carbonitrile]",100 to 200%,> 1000%,
"Cc1ccc(-c2ccc(-c3nc4n(c(=O)c3C#N)CCCS4)c(F)c2)cc1 [Example 197, 8-[2-fluoro-4-(4-methylphenyl)phenyl]-6-oxo-2H,3H,4H,6H-pyrimido[2,1-b][1,3]thiazine-7-carbonitrile]",10 to 50%,10 to 100%,
"Cc1nc(C(C)(C)C)ccc1-c1nc2n(c(=O)c1C#N)CCCS2 [Example 182, 8-(6-tert-butyl-2-methylpyridin-3-yl)-6-oxo-2H,3H,4H,6H-pyrimido[2,1-b][1,3]thiazine-7-carbonitrile]",100 to 200%,10 to 100%,
"COc1ccc(-c2nc3n(c(=O)c2C#N)CCS3)c(OC)c1 [Example 208, 7-(2,4-dimethoxyphenyl)-5-oxo-2H,3H,5H-[1,3]thiazolo[3,2-a]pyrimidine-6-carbonitrile]",50 to 100%,,Inhibitor

# The remaining lines, values ahead:
Emax [1],activation at 10 µM [2],NR2D Oocyte % Potentiation @ 10 uM [2],SMILES
100 to 200%,> 1000%,,"CC(C)(C)c1ccc(-c2nc3n(c(=N)c2C#N)CCCS3)cn1 [Example 38, 8-(6-(tert-butyl)pyridin-3-yl)-6-imino-3,4-dihydro-2H,6H-pyrimido[2,1-b][1,3]thiazine-7-carbonitrile]"
10 to 50%,< 10%,,"N#Cc1c(-c2ccc(C(F)(F)F)nc2)nc2n(c1=O)CCCS2 [Example 48, 6-oxo-8-(6-(trifluoromethyl)pyridin-3-yl)-3,4-dihydro-2H,6H-pyrimido[2,1-b][1,3]thiazine-7-carbonitrile]"
10 to 50%,10 to 100%,,"N#Cc1c(-c2ccc(C3CC3)cc2)nc2n(c1=O)CCCS2 [Example 189, 8-(4-cyclopropylphenyl)-6-oxo-2H,3H,4H,6H-pyrimido[2,1-b][1,3]thiazine-7-carbonitrile]"
50 to 100%,10 to 100%,,"CC(C)c1ccc(-c2nc3n(c(=O)c2C#N)CCS3)cc1 [Example 206, 5-oxo-7-[4-(propan-2-yl)phenyl]-2H,3H,5H-[1,3]thiazolo[3,2-a]pyrimidine-6-carbonitrile]"
100 to 200%,> 1000%,,"CC(C)(C)c1ccc(-c2nc3n(c(=O)c2C#N)CCCS3)cc1 [Example 184, 8-(4-tert-butylphenyl)-3,4-dihydro-6-oxo-2H,6H-pyrimido[2,1-b][1,3]thiazine-7-carbonitrile]"
100 to 200%,500 to 1000%,,"CC(C)(C)c1ncc(-c2nc3n(c(=O)c2C#N)CCCS3)cn1 [Example 176, 8-(2-tert-butylpyrimidin-5-yl)-6-oxo-2H,3H,4H,6H-pyrimido[2,1-b][1,3]thiazine-7-carbonitrile]"
10 to 50%,,Inhibitor,"N#Cc1c(-c2ccc(Cl)cc2)nc2n(c1=O)CCS2 [Example 209, 7-(4-chlorophenyl)-5-oxo-2H,3H,5H-[1,3]thiazolo[3,2-a]pyrimidine-6-carbonitrile]"
100 to 200%,10 to 100%,,"N#Cc1c(-c2ccc(C3CC3)nc2)nc2n(c1=O)CCCS2 [Example 181, 8-(6-cyclopropylpyridin-3-yl)-6-oxo-2H,3H,4H,6H-pyrimido[2,1-b][1,3]thiazine-7-carbonitrile]"
100 to 200%,100 to 500%,,"CC1CCSc2nc(-c3ccc(C(C)(C)C)nc3)c(C#N)c(=O)n21 (stereo not shown) [Example 50, 8-(6-(tert-butyl)pyridin-3-yl)-4-methyl-6-oxo-3,4-dihydro-2H,6H-pyrimido[2,1-b][1,3]thiazine-7-carbonitrile]"

# From patent publication US11807650B2, “NMDA receptor modulators and uses thereof” (Novartis AG, priority 2016, dated 2023)
